According to US7367988B1, “Use of electromagnetic fields in cancer and other therapies” (The Catholic University of America, priority 2000, dated 2008):
Like-named read-outs stand apart in the source and are kept apart here.

Tested on: chick embryos
Description: I have investigated the effect of EM fields on the ability of taxol to create abnormalities in rapidly dividing cells. The model for this purpose was chick embryos. The embryos were incubated in the presence of a 60 Hz, 8 μT EM field. After 48 hours of continuous incubation, either dimethyl sulfoxide (DMSO) alone (controls) or Taxol dissolved in DMSO was injected. EM field incubation was continued for an additional 48 hours. At the end of 4 days incubation, embryos were visualized and classified as normal or abnormal (deformed, young, or dead).

## CC(=O)O[C@H]1C(=O)[C@@]2(C)[C@H]([C@H](OC(=O)c3ccccc3)[C@]3(O)C[C@H](OC(=O)[C@H](O)[C@@H](NC(=O)c4ccccc4)c4ccccc4)C(C)=C1C3(C)C)[C@]1(OC(C)=O)CO[C@@H]1C[C@@H]2O [Taxol]
Taxol + EM fields: 60 Hz, 8 μT for 48 hours before injection and an additional 48 hours after, embryos classified at 4 days
  Percent Abnormal Embryos: 31.1%
Taxol alone, dissolved in DMSO, injected after 48 hours of incubation, embryos classified normal or abnormal (deformed, young, or dead) at 4 days
  Percent Abnormal Embryos: 19.3%
In vivo
  Toxic effect of taxol with EM field exposure compared with taxol alone: very significant increase in the toxic effect
